Assay results: patent publication US6583179B2, “Substituted aminoalkylamide derivatives as antagonists of follicle stimulating hormone” (Ortho-McNeil Pharmaceutical, Inc., priority 1999, dated 2003)

Experiments:
human FSH receptor = biological target: T1, human FSH receptor (Homo sapiens, UniProt P23945); assay: hFSHR CHO cAMP assay (rhFSHR-cLUC cells, FSH-stimulated cAMP, radioimmunoassay); format: cell-based; conditions: inhibition of cAMP produced by EC70 dose of FSH (4.85 nM); maximum concentration 50 μM
T1 construct: expressed in transfected cells; host or cells: Chinese Hamster Ovary cells (K-1; ATCC), line rhFSHR-cLUC
T1 sequence (P23945 18-695): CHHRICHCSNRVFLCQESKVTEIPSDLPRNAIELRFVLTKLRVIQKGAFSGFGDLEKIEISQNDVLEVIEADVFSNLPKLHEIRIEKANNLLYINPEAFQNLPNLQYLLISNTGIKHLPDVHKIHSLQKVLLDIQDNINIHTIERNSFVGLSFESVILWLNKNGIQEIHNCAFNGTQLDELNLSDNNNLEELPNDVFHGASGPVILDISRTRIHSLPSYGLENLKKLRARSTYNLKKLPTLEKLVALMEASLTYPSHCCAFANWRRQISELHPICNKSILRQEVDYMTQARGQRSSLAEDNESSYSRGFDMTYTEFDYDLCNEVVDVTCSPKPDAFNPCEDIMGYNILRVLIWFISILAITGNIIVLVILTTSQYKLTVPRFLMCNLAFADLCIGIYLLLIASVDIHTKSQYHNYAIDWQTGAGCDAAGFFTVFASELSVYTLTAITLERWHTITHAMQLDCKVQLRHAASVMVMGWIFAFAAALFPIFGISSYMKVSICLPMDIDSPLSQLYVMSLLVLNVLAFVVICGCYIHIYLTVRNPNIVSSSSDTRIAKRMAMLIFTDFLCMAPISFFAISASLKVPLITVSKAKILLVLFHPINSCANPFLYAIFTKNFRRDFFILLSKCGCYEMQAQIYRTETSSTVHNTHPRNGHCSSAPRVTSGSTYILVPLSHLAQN
Text: Minimum Essential Medium-Alpha (MEM-alpha), fetal bovine serum (FBS), penicillin, streptomycin, geneticin, trypsin-EDTA, Hanks' Balanced Salt Solution (no Calcium chloride, Magnesium chloride, Magnesium sulfate, or phenol red; Ca-Mg free HBSS) were purchased from Gibco BRL (Gaithersburg, Md.). The cells used for the FSH bioassay (rhFSHR-cLUC) were Chinese Hamster Ovary cells (K-1; ATCC) stably transformed with human FSH receptor (pSVK-FSHr) and a cAMP luciferase reporter gene (responsive CGα-180LUC). Follicle Stimulating Hormone (Metrodin; Fertinex) was purchased from Serono, Ltd. (Norwell, Mass.).
The rhFSHR-cLUC cell cultures were maintained in MEM-Alpha supplemented with 10% heat-inactivated FBS (HIFBS), 100 U/ml penicillin, 100 μg/mL streptomycin, and included 0.1 g/L geneticin for stable cell selection.
Forty-eight hours after the cells were plated in sterile 96-well culture plates (Corning, Corning, N.Y.) the spent media was removed and 50 μl assay media (modified growth media with 2% HIFBS) containing 2 mM IBMX (3-isobutyl-1-methyl-xanthine) was added to the cells. Compounds (25 μl) in the appropriate concentration were added followed 5 minutes later by an EC70 dose of FSH (25 μl; 160 ng/ml; 4.85 nM). After 10 minutes @ 22.5° C. (room temperature) the reaction was terminated by addition of 25 μL 0.5 N hydrochloric acid to each well. The amount of cAMP produced was measured by radioimmunoassay in a FlashPlate (DuPont, Boston, Mass.). To each flash plate 60 μL flash plate buffer was added followed by 40 μL acidified cell sample or cAMP standard, followed with the addition of 100 μl ^125l-cAMP trace. The FlashPlates were sealed, incubated overnight @ room temperature, and counted in a Packard TopCount (Packard Instrument Co., Meriden, Conn.). The cAMP radioimmunoassay results were calculated using DPM conversion and log-logit transformation of % binding (Excel program).
Test compounds were solubilized in 30% dimethyl sulfoxide (DMSO) at a concentration of 10 mM before diluting to appropriate concentrations in assay medium. The final DMSO concentration in the treated cells and in the control cells was 0.75%.
For individual experiments, a set of samples were tested including a vehicle control (assay buffer), a reference compound (hFSH) at a range of concentrations designed to elicit a minimal to maximal response, and several concentrations of test compounds together with an EC70 concentration of standard (hFSH challenge). Each compound was performed in duplicates for the primary evaluation and quadruplicates for the dose-ranging experiments. The cAMP radioimmunoassay raw data (pmol) were calculated to provide average pmol cAMP produced/ml and the percent inhibition was calculated as shown below.
% Inh=[1−(Avg.pmoltest compound+standard)/(Avg.pmolstandard)]×100
EC50 values were calculated from an analysis of the concentration-inhibition data using a linear analysis of the data transformed to a log-logit format.

[1] = test system: mature cycling female Wistar rats; assay: Interruption of 4-day estrus cycle; format: in vivo, rat; conditions: 20 mg/kg BID oral through 2 estrus cycles; for Estradiol Concentration / Progesterone Concentration: blood on morning of estrus; for # Ovulated Eggs: eggs in the oviduct
Procedure: The estrus cycles of mature cycling female Wistar rats (250 g) were monitored for 2 consecutive estrus cycles to select animals with regular 4-day estrus cycles. The animals were randomly assigned to treatment groups on the morning of estrus. Starting on the morning of estrus and continuing through 2 estrus cycles, the animals orally dosed with vehicle or test compound at a concentration of 20 mg/kg; BID. At the end of the second estrus cycle, blood samples were collected by orbital puncture on the morning of estrus. The animals were then sacrificed, and the number of ovulated eggs in the oviduct were counted.

[2] = test system: immature male Wistar rats; assay: Effects on spermatogenesis in immature male rats; format: in vivo, rat; conditions: 20 mg/kg BID for 25 days; for Serum Testosterone (t = 3 hr, d = 25): 3 hr after dosing; for Mating Sperm: animals with sperm / animals
Procedure: Twenty-one day old immature male Wistar rats (Charles River) were treated with FSH antagonist at a concentration of 20 mg/kg BID for 25 days. On the penultimate day of treatment, blood samples were collected by orbital puncture immediately prior to oral dosing, and 3 hours after dosing into Vacutainers containing EDTA. On the last day of treatment, blood samples were again collected prior to time of compound administration. The concentrations of LH, FSH and testosterone were measured in the plasma. Testosterone was measured using a Coat-A-Count kit (Diagnostic Products Corp.) and luteinizing hormone and follicle stimulating hormone concentrations were measured following previously established. At the end of the treatment period, the animals were sacrificed, testes and prostates were collected and weighed, and the testes were prepared for histological examination. The presence of sperm in testes were evaluated by hematoxylin and eosin staining, and in separate slides with a BERG stain (REF, 1963).

| SMILES | EC50 (human FSH receptor) [µM] | Estradiol Concentration [1] | Progesterone Concentration [1] | # Ovulated Eggs [1] | Prostate Weight [2] | Testes Weight [2] | Serum Testosterone (t = 3 hr, d = 25) [2] | Mating Sperm [2] |
| --- | --- | --- | --- | --- | --- | --- | --- | --- |
| C[C@@H](CN(CC(=O)NCc1ccc(CN)cc1)S(=O)(=O)c1ccc(-c2ccccc2Cl)cc1)c1ccccc1 [Compound 198] | 0.04 | 20.1 ± 4.4 | 3.6 ± 0.9 | 14.0 | 1.6 ± 0.2 | 8.8 ± 0.2 | 3.6 ± 0.6 | 3/4 |
| Cc1ccccc1-c1ccc(S(=O)(=O)N(CC(=O)NCc2ccc(CN)cc2)C[C@@H](C)c2ccccc2)cc1 [Compound 215] | 0.08 | 22.2 ± 4.2 | 2.6 ± 0.6 | 16.3 | 1.8 ± 0.1 | 8.7 ± 0.5 | 4.9 ± 0.7 | 1/4 |
